Measurements as given in US9642839B2, “Substance having tyrosine kinase inhibitory activity and preparation method and use thereof” (Institute of Radiation Medicine, China Academy of Military …, priority 2013, dated 2017).

Key:
MHCC-97H cells = assay: Liver orthotopic tumor model; type: in vivo, nude mice; conditions: for Tumor inhibition rate / Weight of tumor: 6 administrations; for Average weight (X ± S), End: animal weight at end, in g (unit assumed)
Text: The medium was changed once every 1-2 days. […] The subcultured tumor cells were digested under a sterile condition and resuspended with sodium chloride injection, and subcutaneously inoculated at the right flank of nude mice. When the subcutaneous tumors in the nude mice grew to a volume about 1,500-2,000 mm^3, the tumor mass was removed under a sterile condition, and cut into pieces in a size about 1.0×1.0 mm for future use. Then the nude mice to be inoculated were anesthetized and fixed on the operating table. The abdominal skin was disinfected, and an incision about 1 cm was made in the left upper abdomen to expose the liver, with the surgical site covered. The prepared tumor piece was placed into a dedicated inoculation trocar, and was implanted into the liver by using the trocar. The bleeding site of the wound was treated with sterilized gauze or sterilized cotton swab to stop the bleeding. Then liver which underwent surgery was placed back into the abdominal cavity of mice. The abdominal muscles and skin were sutured with 4/0 gauge surgical needle sequentially. After normal feeding of the mice for 2 weeks, size of liver tumor was observed under B-ultrasound.
Method: Animal models were randomized into vehicle control group, intraperitoneal low dose group (18 mg/kg), intraperitoneal high dose group (36 mg/kg), and gavage group (36 mg/kg), with 9 mice each group. The mice received treatment once every 24 hours. Intraperitoneal administration was done by intraperitoneal injection. The vehicle control group received DMSO injected intraperitoneally. Six times of administration were given. After the last administration, animals were kept for another 3 weeks, then sacrificed by cervical dislocation, and dissected to obtain liver. Visible tumor was dissected and weighed.

MHCC97-L cells = conditions: MHCC97-L s.c. nude mice; 16 mg/kg intraperitoneal, once every 24 h, 6 administrations; by tumor weight
Description: (§1) Establishment of tumor-bearing models: Tumor cells were cultured in T75 flasks until achieving a logarithmical growth. The cells were trypsinized and DMEM medium containing 10% fetal bovine serum was added to terminate trypsinization. The cells were washed with PBS twice, and suspended. Cell concentration was adjusted to 5×10^7 cells/ml, and 150 μl cell suspension was injected into the right flank of the mice. After inoculation, the tumors in the nude mice were observed every day, and the mice were grouped when the tumors reached a volume of 100 mm^3. Each nude mouse was numbered, and the tumor size was measured. The data was entered into EXCEL for sorting and thus excluding extreme values. Random numbers were generated corresponding to the number of the mice, and the mice were randomly grouped using these random numbers.
(§2) Administration: intraperitoneal injection was used at doses of 4 mg/kg, 8 mg/kg, and 16 mg/kg, respectively. The vehicle control group was injected with the same volume of DMSO. The mice received treatment once every 24 h, and a total of 6 times of administrations were given. During administration, changes of tumor size (length×width×width/2) were monitored and recorded in a real-time manner, and the results were expressed as mean±standard deviation.

MHCC97-H cells = conditions: MHCC97-H s.c. nude mice; 16 mg/kg intraperitoneal, once every 24 h, 6 administrations; by tumor weight
Description: as §1, §2

[1] = intraperitoneal high dose 36 mg/kg
[2] = intraperitoneal low dose 18 mg/kg

Cc1ccccc1NS(=O)(=O)c1ccc2c(c1)/C(=C/c1nc3ccccc3[nH]1)C(=O)N2 [Indo 5, 3-(1H-benzimidazol-2-methylene)-5-(2-methylphenylaminosulfo)-2-indolone]
Tumor inhibition rate (MHCC-97H cells; gavage (PO) 36 mg/kg): 62.2% | Weight of tumor (MHCC-97H cells; gavage (PO) 36 mg/kg): 0.401 ± 0.530 g | Average weight (X ± S), End (MHCC-97H cells; gavage (PO) 36 mg/kg): 21.01 ± 3.41 | Tumor inhibition rate (MHCC-97H cells; [1]): 62.4% | Weight of tumor (MHCC-97H cells; [1]): 0.399 ± 0.486 g | Disappearance of liver tumor at end of experiment (MHCC-97H cells; intraperitoneal high dose 36 mg/kg, 9 animals): Liver cancer was gone in one animal | Average weight (X ± S), End (MHCC-97H cells; [1]): 21.18 ± 1.44 | Tumor inhibition rate (MHCC-97H cells; [2]): 55.5% | Weight of tumor (MHCC-97H cells; [2]): 0.473 ± 0.497 g | Average weight (X ± S), End (MHCC-97H cells; [2]): 20.61 ± 2.33 | Tumor inhibition rate (MHCC97-L cells): 68% | Tumor inhibition rate (MHCC97-H cells): 61%
